Test results reported in patent US10626112B2, “Heterocyclic sulfonamide derivative and medicine comprising same” (EA PHARMA CO., LTD., priority 2014, dated 2020).

Target: human TRPA1 (Homo sapiens (Human), UniProt O75762)
Experiment: Measurement of TRPA1 antagonist activity (1): intracellular calcium increase
Type: cell-based
Details: 293T cells transfected with human TRPA1 expression plasmid; allylisothiocyanate 20 μM stimulation; intracellular calcium fluorescence; read-out: hTRPA1 IC50
Method in brief: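 Calcium-flux readout of TRPA1 block: compound given 10 min before 20 μM (final) allylisothiocyanate, fluorescence tracked 5 min. Cells were 293T transiently expressing human TRPA1, dye-loaded 1 hr in HBSS, 20 mM HEPES, pH 7.2. Inhibition scaled between agonist-only and buffer-only responses; IC50 by sigmoid fitting.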

Chain of human TRPA1 (O75762 whole entry): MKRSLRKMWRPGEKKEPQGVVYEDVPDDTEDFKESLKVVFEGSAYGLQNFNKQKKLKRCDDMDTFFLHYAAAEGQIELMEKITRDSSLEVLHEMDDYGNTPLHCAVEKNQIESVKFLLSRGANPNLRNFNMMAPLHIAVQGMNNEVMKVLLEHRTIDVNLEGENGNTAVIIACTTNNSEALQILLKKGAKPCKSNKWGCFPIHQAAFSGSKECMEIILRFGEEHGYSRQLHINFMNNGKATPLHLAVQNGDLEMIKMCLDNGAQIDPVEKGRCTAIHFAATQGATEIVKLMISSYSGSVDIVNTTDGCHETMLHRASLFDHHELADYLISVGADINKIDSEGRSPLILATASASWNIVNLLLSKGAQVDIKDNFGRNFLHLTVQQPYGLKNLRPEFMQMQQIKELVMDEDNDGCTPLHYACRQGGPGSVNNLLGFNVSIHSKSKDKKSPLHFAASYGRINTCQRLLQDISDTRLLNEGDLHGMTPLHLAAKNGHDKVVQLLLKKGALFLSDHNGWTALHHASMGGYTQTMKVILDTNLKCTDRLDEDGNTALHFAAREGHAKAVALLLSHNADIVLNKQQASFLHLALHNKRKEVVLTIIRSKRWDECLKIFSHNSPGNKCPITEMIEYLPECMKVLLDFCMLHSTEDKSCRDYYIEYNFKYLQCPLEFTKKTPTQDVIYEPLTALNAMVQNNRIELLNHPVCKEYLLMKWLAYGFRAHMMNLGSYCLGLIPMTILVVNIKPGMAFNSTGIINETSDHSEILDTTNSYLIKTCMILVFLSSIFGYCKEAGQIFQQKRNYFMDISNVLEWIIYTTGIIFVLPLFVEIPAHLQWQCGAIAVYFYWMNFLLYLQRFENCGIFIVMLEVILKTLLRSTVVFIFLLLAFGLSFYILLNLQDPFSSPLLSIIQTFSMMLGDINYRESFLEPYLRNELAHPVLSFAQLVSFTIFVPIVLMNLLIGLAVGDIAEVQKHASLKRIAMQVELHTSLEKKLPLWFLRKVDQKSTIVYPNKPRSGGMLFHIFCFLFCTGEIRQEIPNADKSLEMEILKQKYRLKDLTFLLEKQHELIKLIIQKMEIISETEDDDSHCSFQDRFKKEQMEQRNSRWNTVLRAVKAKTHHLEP

Compound	IC50
O=C(NCc1ccnc(-c2cc3ccccc3[nH]2)c1)[C@@H]1CCCN1S(=O)(=O)c1cc2ccccc2o1 [Example 176, (2S)-1-(benzofuran-2-ylsulfonyl)-N-[[2-(1H-indol-2-yl)-4-pyridyl]methyl]pyrrolidine-2-carboxamide]	0.32 µM
CNc1ccc(-c2ccc(F)c(CNC(=O)[C@@H]3CCCN3S(=O)(=O)c3cc4ccccc4o3)c2)cn1 [Example 177, (2S)-1-(benzofuran-2-ylsulfonyl)-N-[[2-fluoro-5-[6-(methylamino)-3-pyridyl]phenyl]methyl]pyrrolidine-2-carboxamide]	0.3 µM
O=C(NCc1ccnc(-c2ccc(C(F)(F)F)cn2)c1)[C@@H]1CCCN1S(=O)(=O)c1cc2ccccc2o1 [Example 178, (2S)-1-(benzofuran-2-ylsulfonyl)-N-[[2-[5-(trifluoromethyl)-2-pyridyl]-4-pyridyl]methyl]pyrrolidine-2-carboxamide]	0.046 µM
C[C@H](NS(=O)(=O)c1cc2ccccc2o1)C(=O)NCc1ccnc(-c2ccc(C(F)(F)F)cc2O)c1 [Example 180, (2S)-2-(benzofuran-2-ylsulfonylamino)-N-[[2-[2-hydroxy-4-(trifluoromethyl)phenyl]-4-pyridyl]methyl]propanamide]	0.069 µM
C[C@H](NS(=O)(=O)c1cc2cc(F)ccc2o1)C(=O)NCc1ccnc(-c2ccc(C(F)(F)F)cc2O)c1 [Example 181, (2S)-2-[(5-fluorobenzofuran-2-yl)sulfonylamino]-N-[[2-[2-hydroxy-4-(trifluoromethyl)phenyl]-4-pyridyl]methyl]propanamide]	0.021 µM
C[C@H](NS(=O)(=O)c1cc2ccccc2o1)C(=O)NCc1cccc(OCc2ccc(C#N)cc2)c1 [Example 182, (2S)-2-(benzofuran-2-ylsulfonylamino)-N-[[3-[(4-cyanophenyl)methoxy]phenyl]methyl]propanamide]	0.094 µM
C[C@H](NS(=O)(=O)c1cc2ccccc2o1)C(=O)NCc1cccc(OCC2CCOCC2)c1 [Example 183, (2S)-2-(benzofuran-2-ylsulfonylamino)-N-[[3-(tetrahydropyran-4-ylmethoxy)phenyl]methyl]propanamide]	0.57 µM
C[C@H](NS(=O)(=O)c1cc2cc(F)ccc2o1)C(=O)NCc1cccc(OCc2ccc(C#N)cc2)c1 [Example 184, (2S)-N-[[3-[(4-cyanophenyl)methoxy]phenyl]methyl]-2-[(5-fluorobenzofuran-2-yl)sulfonylamino]propanamide]	0.041 µM
C[C@H](NS(=O)(=O)c1cc2cc(F)ccc2o1)C(=O)NCc1cccc(OCC2CCOCC2)c1 [Example 185, (2S)-2-[(5-fluorobenzofuran-2-yl)sulfonylamino]-N-[[3-(tetrahydropyran-4-ylmethoxy)phenyl]methyl]propanamide]	0.25 µM
O=C(NCc1ccnc(NCc2ccc(C(F)(F)F)cc2)c1)[C@@H]1CCCN1S(=O)(=O)c1cc2ccccc2o1 [Example 186, (2S)-1-(benzofuran-2-ylsulfonyl)-N-[[2-[[4-(trifluoromethyl)phenyl]methylamino]-4-pyridyl]methyl]pyrrolidine-2-carboxamide]	0.086 µM
O=C(NCc1cccc(OCc2ccc(C(F)(F)F)cc2)c1)[C@@H]1CC=CCN1S(=O)(=O)c1cc2ccccc2o1 [Example 187, (2S)-1-(benzofuran-2-ylsulfonyl)-N-[[3-[[4-(trifluoromethyl)phenyl]methoxy]phenyl]methyl]-3,6-dihydro-2H-pyridine-2-carboxamide]	0.071 µM
O=C(NCc1cccc([S+]([O-])Cc2ccccc2)c1)[C@@H]1CCCN1S(=O)(=O)c1cc2ccccc2o1 (stereo partly drawn) [Example 188, (2S)-1-(benzofuran-2-ylsulfonyl)-N-[(3-benzylsulfinylphenyl)methyl]pyrrolidine-2-carboxamide]	0.89 µM
CC(C)(C)OC[C@H](NS(=O)(=O)c1cc2cc(F)ccc2o1)C(=O)NCc1cccc(-c2ccc(C(F)(F)F)nc2)c1 [Example 189, (2S)-3-tert-butoxy-2-[(5-fluorobenzofuran-2-yl)sulfonylamino]-N-[[3-[6-trifluoromethyl-3-pyridyl]phenyl]methyl]propanamide]	0.84 µM
O=C(NCc1cc(-c2ncc(C(F)(F)F)cn2)ccn1)[C@@H]1CCCN1S(=O)(=O)c1cc2ccccc2o1 [Example 192, (2S)-1-(benzofuran-2-ylsulfonyl)-N-[[4-[5-(trifluoromethyl)pyrimidin-2-yl]-2-pyridyl]methyl]pyrrolidine-2-carboxamide]	0.022 µM
O=C(NCc1ccnc(-c2ccc(Cl)cc2)c1)[C@@H]1CCCN1S(=O)(=O)c1cc2ccccc2o1 [Example 198, (2S)-1-(benzofuran-2-ylsulfonyl)-N-[[2-(4-chlorophenyl)-4-pyridyl]methyl]pyrrolidine-2-carboxamide]	0.013 µM
O=C(NCc1cc(-c2cnc(C(F)(F)F)nc2)ccn1)[C@@H]1CCCN1S(=O)(=O)c1cc2ccccc2o1 [Example 200, (2S)-1-(benzofuran-2-ylsulfonyl)-N-[[4-[2-(trifluoromethyl)pyrimidin-5-yl]-2-pyridyl]methyl]pyrrolidine-2-carboxamide]	0.016 µM
O=C(NCc1ccnc(-c2ccc(OCC(F)(F)F)cc2)c1)[C@@H]1CCCN1S(=O)(=O)c1cc2ccccc2o1 [Example 204, (2S)-1-(benzofuran-2-ylsulfonyl)-N-[[2-[4-(2,2,2-trifluoroethoxy)phenyl]-4-pyridyl]methyl]pyrrolidine-2-carboxamide]	0.035 µM
O=C(NCc1cc(-c2ccc(C(F)(F)F)cn2)ncn1)[C@@H]1CCCN1S(=O)(=O)c1cc2ccccc2o1 [Example 206, (2S)-1-(benzofuran-2-ylsulfonyl)-N-[[6-[5-(trifluoromethyl)-2-pyridyl]pyrimidin-4-yl]methyl]pyrrolidine-2-carboxamide]	0.012 µM
O=C(NCc1cnnc(-c2ccc(C(F)(F)F)cc2)c1)[C@@H]1CCCN1S(=O)(=O)c1cc2ccccc2o1 [Example 208, (2S)-1-(benzofuran-2-ylsulfonyl)-N-[[6-[4-(trifluoromethyl)phenyl]-pyridazin-4-yl]methyl]pyrrolidine-2-carboxamide]	0.034 µM

These reach a lower IC50. Values come first.

IC50	Compound
0.01 µM	O=C(NCc1cccc(-c2ncc(C(F)(F)F)cn2)c1)[C@@H]1CCCN1S(=O)(=O)c1cc2ccccc2o1 [Example 194, (2S)-1-(benzofuran-2-ylsulfonyl)-N-[[3-[5-(trifluoromethyl)pyrimidin-2-yl]phenyl]-methyl]pyrrolidine-2-carboxamide]
0.0086 µM	O=C(NCc1cc(-c2cnc(C(F)(F)F)cn2)ccn1)[C@@H]1CCCN1S(=O)(=O)c1cc2ccccc2o1 [Example 201, (2S)-1-(benzofuran-2-ylsulfonyl)-N-[[4-[5-(trifluoromethyl)pyrazin-2-yl]-2-pyridyl]methyl]pyrrolidine-2-carboxamide]
0.0052 µM	C[C@H](NS(=O)(=O)c1cc2cc(F)ccc2o1)C(=O)NCc1cc(-c2ccc(OC(F)(F)F)cc2)ncn1 [Example 190, (2S)-2-[(5-fluorobenzofuran-2-yl)sulfonylamino]-N-[[6-[4-(trifluoromethoxy)phenyl]pyrimidin-4-yl]methyl]propanamide]
0.005 µM	O=C(NCc1ccnc(-c2cnc(C(F)(F)F)nc2)c1)[C@@H]1CCCN1S(=O)(=O)c1cc2ccccc2o1 [Example 199, (2S)-1-(benzofuran-2-ylsulfonyl)-N-[[2-[2-(trifluoromethyl)pyrimidin-5-yl]-4-pyridyl]methyl]pyrrolidine-2-carboxamide]
0.0043 µM	O=C(NCc1cc(-c2ccc(C(F)(F)F)nn2)ccn1)[C@@H]1CCCN1S(=O)(=O)c1cc2ccccc2o1 [Example 202, (2S)-1-(benzofuran-2-ylsulfonyl)-N-[[4-[6-(trifluoromethyl)pyridazin-3-yl]-2-pyridyl]methyl]pyrrolidine-2-carboxamide]
0.004 µM	O=C(NCc1cc(-c2ccc(C(F)(F)F)nc2)ncn1)[C@@H]1CCCN1S(=O)(=O)c1cc2ccccc2o1 [Example 205, (2S)-1-(benzofuran-2-ylsulfonyl)-N-[[6-[6-(trifluoromethyl)-3-pyridyl]pyrimidin-4-yl]methyl]pyrrolidine-2-carboxamide]
0.004 µM	O=C(NCc1cc(-c2cnc(C(F)(F)F)nc2)ncn1)[C@@H]1CCCN1S(=O)(=O)c1cc2ccccc2o1 [Example 207, (2S)-1-(benzofuran-2-ylsulfonyl)-N-[[6-[2-(trifluoromethyl)pyrimidin-5-yl]pyrimidin-4-yl]methyl]pyrrolidine-2-carboxamide]
0.0032 µM	O=C(NCc1cc(-c2ccc(OC(F)(F)F)cc2)ncn1)[C@@H]1CCCN1S(=O)(=O)c1cc2ccccc2o1 [Example 203, (2S)-1-(benzofuran-2-ylsulfonyl)-N-[[6-[4-(trifluoromethoxy)phenyl]-pyrimidin-4-yl]methyl]pyrrolidine-2-carboxamide]
0.003 µM	O=C(NCc1cccc(-c2ccc(C(F)(F)F)nn2)c1)[C@@H]1CCCN1S(=O)(=O)c1cc2ccccc2o1 [Example 197, (2S)-1-(benzofuran-2-ylsulfonyl)-N-[[3-[6-(trifluoromethyl)pyridazin-3-yl]phenyl]methyl]-pyrrolidine-2-carboxamide]
0.0029 µM	O=C(NCc1cccc(-c2cnc(C(F)(F)F)cn2)c1)[C@@H]1CCCN1S(=O)(=O)c1cc2ccccc2o1 [Example 196, (2S)-1-(benzofuran-2-ylsulfonyl)-N-[[3-[5-(trifluoromethyl)pyrazin-2-yl]phenyl]methyl]-pyrrolidine-2-carboxamide]
0.0025 µM	O=C(NCc1cccc(-c2cnc(C(F)(F)F)nc2)c1)[C@@H]1CCCN1S(=O)(=O)c1cc2ccccc2o1 [Example 195, (2S)-1-(benzofuran-2-ylsulfonyl)-N-[[3-[2-(trifluoromethyl)pyrimidin-5-yl]phenyl]-methyl]pyrrolidine-2-carboxamide]
0.0022 µM	O=C(NCc1ccc(O)c(-c2ccc(C(F)(F)F)cn2)c1)[C@@H]1CCCN1S(=O)(=O)c1cc2ccccc2o1 [Example 193, (2S)-1-(benzofuran-2-ylsulfonyl)-N-[[4-hydroxy-3-[5-(trifluoromethyl)-2-pyridyl]phenyl]methyl]pyrrolidine-2-carboxamide]
